Data taken from patent US9999650B2, “Peptide and peptidomimetic inhibitors” (Ra Pharmaceuticals, Inc., priority 2012, dated 2018).
Numbered stars: 1 amine (or outer) side, 2 acyl side, 3 side chain; on linkers, the order of the positions; unused ones are H or OH. Bridge positions count the residues as written; N and C are the ends. Square brackets hold non-standard residues; d marks the D form. Peptide text beside a SMILES is read from it. NMeW = CN[C@@H](Cc1c[nH]c2ccccc12)C(=O)O; mXylylene = c1cc(C[*:1])cc(C[*:2])c1; Phg = N[C@H](C(=O)O)c1ccccc1; Tle = CC(C)(C)[C@H](N)C(=O)O; Mpa = O=C(O)CCS

Molecular target: T1, human plasma kallikrein (Homo sapiens, UniProt P03952)
T1 construct: purchased Enzyme Research Laboratories HPKa 1303
T1 sequence (P03952 20-390 limits assumed): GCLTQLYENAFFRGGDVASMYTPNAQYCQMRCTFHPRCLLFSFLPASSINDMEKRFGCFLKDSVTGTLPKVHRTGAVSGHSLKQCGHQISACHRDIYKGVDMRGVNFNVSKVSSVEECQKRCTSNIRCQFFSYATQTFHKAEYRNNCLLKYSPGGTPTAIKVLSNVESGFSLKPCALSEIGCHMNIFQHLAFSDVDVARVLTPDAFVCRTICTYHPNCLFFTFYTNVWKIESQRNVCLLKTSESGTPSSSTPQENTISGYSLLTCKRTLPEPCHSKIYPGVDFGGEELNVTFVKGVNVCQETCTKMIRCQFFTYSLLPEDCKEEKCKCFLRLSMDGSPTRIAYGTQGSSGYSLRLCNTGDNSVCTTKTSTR
T1 sequence (P03952 391-638 limits assumed): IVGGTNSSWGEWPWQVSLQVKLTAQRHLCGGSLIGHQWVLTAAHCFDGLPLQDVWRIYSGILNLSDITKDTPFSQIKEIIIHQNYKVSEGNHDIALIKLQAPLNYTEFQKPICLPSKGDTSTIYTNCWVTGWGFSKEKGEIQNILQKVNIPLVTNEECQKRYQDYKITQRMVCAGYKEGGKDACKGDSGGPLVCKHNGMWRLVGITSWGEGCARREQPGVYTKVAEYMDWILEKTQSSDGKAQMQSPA
Assay: Enzyme inhibition assay (fluorogenic substrate H-Pro-Phe-Arg-AMC)
Assay type: biochemical
Details: Kallikrein inhibitory activity; 1 nM activated human kallikrein, 500 μM H-Pro-Phe-Arg-AMC, 1 hour room temperature; read-out: Avg. IC50
In short: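 IC50 was determined from AMC fluorescence (ex 360/em 460 nm) after 1 h of reaction at room temperature with 500 μM final substrate. Before this, peptides in ten 8-fold serial dilutions were incubated 5 min with 1 nM final activated kallikrein. The buffer was Tris-HCl pH 7.2 containing NaCl, CaCl2 and Brij-35.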

SMILES | IC50
CC(C)(C)[C@H](NC(=O)[C@H](CCCNC(=N)N)NC(=O)[C@@H]1CSCc2cccc(c2)/C=C/CCC(=O)N2CCC[C@H]2C(=O)N[C@@H](C2CCCCC2)C(=O)N1)C(N)=O [Compound R2260] | 4.68 µM
CC[C@@H](C)[C@@H]1NC(=O)[C@@H]2CCCN2C(=O)CCCCCCC/C=C/C[C@@H](C(=O)N[C@@H](CCCNC(=N)N)C(=O)N[C@H](C(N)=O)C(C)C)NC1=O [Compound R2244] | > 50 µM
CC(C)(C)[C@H](NC(=O)[C@H](CCCNC(=N)N)NC(=O)[C@@H]1CCCc2cccc(c2)OCCCC(=O)N2CCC[C@H]2C(=O)N[C@@H](C2CCCCC2)C(=O)N1)C(N)=O [Compound R2263] | > 100 µM

Other lines, results leading:

IC50 | SMILES
0.0034 µM | CC(C)(C)[C@H](NC(=O)[C@H](CCCNC(=N)N)NC(=O)[C@@H]1CSCc2cccc(c2)CSCCC(=O)N2CCC[C@H]2C(=O)N[C@@H](c2ccccc2)C(=O)N1)C(N)=O [Compound R2188, [mXylyl(1,4)](des-NH2)C-P-Phg-CR-Tbg-NH2] ([Mpa]P[Phg]CR[Tle]-NH2; linker 1-4 via mXylylene)
0.0061 µM | CC(=O)N[C@H]1CSCc2cccc(c2)CSC[C@@H](C(N)=O)NC(=O)[C@H](C)NC(=O)[C@H]([C@@H](C)O)NC(=O)[C@H](Cc2c[nH]c3ccccc23)NC(=O)[C@@H]2CCCN2C(=O)[C@H](CO)NC(=O)[C@H](Cc2c[nH]c3ccccc23)NC(=O)[C@H](Cc2ccc(O)cc2)NC(=O)[C@H](CC(N)=O)NC1=O [Compound R2136, [mXylyl(1,10)]Ac-CNYWSPWTAC-NH2] (Ac-CNYWSPWTAC-NH2; linker 1-10 via mXylylene)
> 4.52 µM | CC(=O)N[C@@H](CS)C(=O)N[C@@H](CC(N)=O)C(=O)N[C@@H](Cc1ccc(O)cc1)C(=O)N(C)[C@@H](Cc1c[nH]c2ccccc12)C(=O)N[C@@H](CO)C(=O)N1CCC[C@H]1C(=O)N[C@@H](Cc1c[nH]c2ccccc12)C(=O)N[C@H](C(=O)N[C@@H](C)C(=O)N[C@@H](CS)C(N)=O)[C@@H](C)O [Compound R2238, Ac-CNY-nMeW-SPWTAC-NH2] (Ac-CNY[NMeW]SPWTAC-NH2)
